Tests used:
[1] = system: LNCap prostate tumor cells; assay: In vitro cytotoxicity, Alamar Blue assay, LNCaP cell kill in 72 hrs; assay type: cell-based; settings: Table 3, 3 days, TFA salt of cytotoxic agent unless otherwise indicated, read-out: LNCaP Cell Kill in 72 HRS EC5O
Protocol: (§1) The cytotoxicities of the vinca alkaloid derivatives, prepared as described in Example 1, and the cleaveable oligopeptide-vinca drug conjugates, prepared as described in Examples 2 and 2A, against a line of cells which is known to be killed by unmodified vinca drug was assessed with an Alamar Blue assay. Specifically, cell cultures of LNCap prostate tumor cells, Colo320DM cells (also designated C320), T24 bladder carcinoma cells or T47D breast carcinoma cells in 96 well plates was diluted with medium containing various concentrations of a given conjugate (final plate well volume of 200 μl). The cells were incubated for 3 days at 37° C., 20 μl of Alamar Blue is added to the assay well. The cells were further incubated and the assay plates were read on a EL-310 ELISA reader at the dual wavelengths of 570 and 600 nm at 4 and 7 hours after addition of Alamar Blue. Relative percentage viability at the various concentration of conjugate tested was then calculated versus control (no cytotoxic agent or conjugate) cultures. Unless otherwise indicated, the TFA salt of the cytotoxic agent and the acetate salt of the conjugate were tested.

[2] = system: Colo320DM cells (also designated C320); assay: In vitro cytotoxicity, Alamar Blue assay, Colo320DM cells; assay type: cell-based; settings: Table 3, value in parentheses, TFA salt unless otherwise indicated, read-out: Cell Kill in 72 HRS EC5O, Colo320DM
Protocol: as §1

| Compound | EC50 [1] [nM] | EC50 [2] [nM] |
| --- | --- | --- |
| CCOC(=O)[C@H](CC1CC1)NC(=O)[C@@]1(O)[C@H](O)[C@]2(CC)C=CCN3CC[C@@]4(c5cc([C@@]6(C(=O)OC)C[C@H]7CN(CCc8c6[nH]c6ccccc86)C[C@](O)(CC)C7)c(OC)cc5N(C)[C@@H]14)[C@@H]32 [L-cyclopropyl-alainine-OEt-(dAc)-VIN] | 1400 | 1000 |
| CCC1(O)CC2CN(CCc3c([nH]c4ccccc34)C(C(=O)OC)(c3cc4c(cc3OC)N(C)C3C(O)(C(=O)NC(C)C(O)c5ccccc5)C(O)C5(CC)C=CCN6CCC43C65)C2)C1 (single isomer, unassigned; isomer b) [norephedrine-(dAc)-VIN, isomer B] | 200 | 400 |
| CCC1(O)CC2CN(CCc3c([nH]c4ccccc34)C(C(=O)OC)(c3cc4c(cc3OC)N(C)C3C(O)(C(=O)NC(C)C(O)c5cccc(OC)c5)C(O)C5(CC)C=CCN6CCC43C65)C2)C1 (stereo not shown) [3-methoxy-norephedrine-(dAc)-VIN] | 1800 | 5100 |
| CCC(CO)NC(=O)[C@@]1(O)[C@H](O)[C@]2(CC)C=CCN3CC[C@@]4(c5cc([C@@]6(C(=O)OC)C[C@H]7CN(CCc8c6[nH]c6ccccc86)C[C@](O)(CC)C7)c(OC)cc5N(C)[C@@H]14)[C@@H]32 (stereo partly shown) [2-Aminobutanol-(dAc)-VIN] | 2900 | 7100 |
| CC[C@]1(O)C[C@@H]2CN(CCc3c([nH]c4ccccc34)[C@@](C(=O)OC)(c3cc4c(cc3OC)N(C)[C@H]3[C@@](O)(C(=O)N[C@H](CO)Cc5ccccc5)[C@H](O)[C@]5(CC)C=CCN6CC[C@]43[C@@H]65)C2)C1 [L-phenylalaninol-(dAc)-VIN] | 500 | 3500 |
| CCC1(O)CC2CN(CCc3c([nH]c4ccccc34)C(C(=O)OC)(c3cc4c(cc3OC)N(C)C3C(O)(C(=O)NC(CO)Cc5c[nH]c6ccccc56)C(O)C5(CC)C=CCN6CCC43C65)C2)C1 (stereo not shown) [tryptophanol-(dAc)-VIN] | 600 | 2900 |
| CC[C@]1(O)C[C@@H]2CN(CCc3c([nH]c4ccccc34)[C@@](C(=O)OC)(c3cc4c(cc3OC)N(C)[C@H]3[C@@](O)(C(=O)NC(C)C(O)C5CCCCC5)[C@H](O)[C@]5(CC)C=CCN6CC[C@]43[C@@H]65)C2)C1 (single isomer, unassigned; isomer a) [(3-cyclohexyl-3-hydroxyl-2-propylaminol)-(dAc)-VIN isomer A] | 300 | 500 |
| CC[C@]1(O)C[C@@H]2CN(CCc3c([nH]c4ccccc34)[C@@](C(=O)OC)(c3cc4c(cc3OC)N(C)[C@H]3[C@@](O)(C(=O)N[C@H](CO)CC5CCCCC5)[C@H](O)[C@]5(CC)C=CCN6CC[C@]43[C@@H]65)C2)C1 [L-cyclolhexyl-alaninol-(dAc)-VIN] | 1000 | 2000 |
| CC[C@H](C)[C@@H](CO)NC(=O)[C@@]1(O)[C@H](O)[C@]2(CC)C=CCN3CC[C@@]4(c5cc([C@@]6(C(=O)OC)C[C@H]7CN(CCc8c6[nH]c6ccccc86)C[C@](O)(CC)C7)c(OC)cc5N(C)[C@@H]14)[C@@H]32 [L-isoleucinol-(dAc)-VIN] | 900 | 1700 |
| CC[C@]1(O)C[C@@H]2CN(CCc3c([nH]c4ccccc34)[C@@](C(=O)OC)(c3cc4c(cc3OC)N(C)[C@H]3[C@@](O)(C(=O)NC(CO)c5ccccc5)[C@H](O)[C@]5(CC)C=CCN6CC[C@]43[C@@H]65)C2)C1 (stereo partly shown) [Phenylglyinol-(dAc)-VIN] | 700 | 4800 |
| CC[C@]1(O)C[C@@H]2CN(CCc3c([nH]c4ccccc34)[C@@](C(=O)OC)(c3cc4c(cc3OC)N(C)[C@H]3[C@@](O)(C(=O)N5CCC(O)C5)[C@H](O)[C@]5(CC)C=CCN6CC[C@]43[C@@H]65)C2)C1 (stereo partly shown) [3-hydroxylpyrrolidine-(dAc)-VIN] | 200 | 1500 |
| CC[C@]1(O)C[C@@H]2CN(CCc3c([nH]c4ccccc34)[C@@](C(=O)OC)(c3cc4c(cc3OC)N(C)[C@H]3[C@@](O)(C(=O)OC)[C@H](O)[C@]5(CC)C=CCN6CC[C@]43[C@@H]65)C2)C1 [(dAc)-VINBLASTINE, desacetylvinblastine, reference compound] | 300 | 500 |
| CC[C@]1(O)C[C@@H]2CN(CCc3c([nH]c4ccccc34)[C@@](C(=O)OC)(c3cc4c(cc3OC)N(C)[C@H]3[C@@](O)(C(=O)NC(c5ccccc5)C(O)c5ccccc5)[C@H](O)[C@]5(CC)C=CCN6CC[C@]43[C@@H]65)C2)C1 (stereo partly shown) [1,2-diPhenylethanolamino-(dAc)-VIN] | 2200 | 8900 |
| CC[C@]1(O)C[C@@H]2CN(CCc3c([nH]c4ccccc34)[C@@](C(=O)OC)(c3cc4c(cc3OC)N(C)[C@H]3[C@@](O)(C(=O)NCC(C)O)[C@H](O)[C@]5(CC)C=CCN6CC[C@]43[C@@H]65)C2)C1 (stereo partly shown) [2-hydroxylpropylamino-(dAc)-VIN] | 1200 | 2900 |
| CCC1(O)CC2CN(CCc3c([nH]c4ccccc34)C(C(=O)OC)(c3cc4c(cc3OC)N(C)C3C(O)(C(=O)N5CCC(O)CC5)C(O)C5(CC)C=CCN6CCC43C65)C2)C1 (stereo not shown) [4-hydroxylpiperidine-(dAc)-VIN] | 200 | 800 |
| CC[C@]1(O)C[C@@H]2CN(CCc3c([nH]c4ccccc34)[C@@](C(=O)OC)(c3cc4c(cc3OC)N(C)[C@H]3[C@@](O)(C(=O)N[C@H](CO)C(C)C)[C@H](O)[C@]5(CC)C=CCN6CC[C@]43[C@@H]65)C2)C1 [L-Valinol-(dAc)-VIN] | 400 | 800 |
| CCC1(O)CC2CN(CCc3c([nH]c4ccccc34)C(C(=O)OC)(c3cc4c(cc3OC)N(C)C3C(O)(C(=O)NC(C)C(O)c5ccccc5)C(O)C5(CC)C=CCN6CCC43C65)C2)C1 (single isomer, unassigned; isomer a) [norephedrine-(dAc)-VIN, isomer A] | 3000 | 3000 |
| CC[C@]1(O)C[C@@H]2CN(CCc3c([nH]c4ccccc34)[C@@](C(=O)OC)(c3cc4c(cc3OC)N(C)[C@H]3[C@@](O)(C(=O)N[C@H](CO)CC(C)C)[C@H](O)[C@]5(CC)C=CCN6CC[C@]43[C@@H]65)C2)C1 [L-leucinol-(dAc)-VIN] | 700 | 2000 |
| CC[C@]1(O)C[C@@H]2CN(CCc3c([nH]c4ccccc34)[C@@](C(=O)OC)(c3cc4c(cc3OC)N(C)[C@H]3[C@@](O)(C(=O)NCC5(O)CCCCC5)[C@H](O)[C@]5(CC)C=CCN6CC[C@]43[C@@H]65)C2)C1 [1-hydroxylcyclohexylmethyamino-(dAc)-VIN] | 500 | 15800 |
| CC[C@]1(O)C[C@@H]2CN(CCc3c([nH]c4ccccc34)[C@@](C(=O)OC)(c3cc4c(cc3OC)N(C)[C@H]3[C@@](O)(C(=O)N5CCCC(O)C5)[C@H](O)[C@]5(CC)C=CCN6CC[C@]43[C@@H]65)C2)C1 (single isomer, unassigned; isomer a) [3-hydroxyl-piperidine-(dAc)-VIN, isomer A] | 500 | 500 |
| CC[C@]1(O)C[C@@H]2CN(CCc3c([nH]c4ccccc34)[C@@](C(=O)OC)(c3cc4c(cc3OC)N(C)[C@H]3[C@@](O)(C(=O)N5CCCC(O)C5)[C@H](O)[C@]5(CC)C=CCN6CC[C@]43[C@@H]65)C2)C1 (single isomer, unassigned; isomer b) [3-hydroxyl-piperidine-(dAc)-VIN, isomer B] | 500 | – |
| CC[C@]1(O)C[C@@H]2CN(CCc3c([nH]c4ccccc34)[C@@](C(=O)OC)(c3cc4c(cc3OC)N(C)[C@H]3[C@@](O)(C(=O)NC5CCCCC5O)[C@H](O)[C@]5(CC)C=CCN6CC[C@]43[C@@H]65)C2)C1 (single isomer, unassigned; isomer a) [(trans-2-hydroxyl)cyclohexylamine-(dAc)-VIN, Isomer A] | 100 | 200 |
| CC[C@]1(O)C[C@@H]2CN(CCc3c([nH]c4ccccc34)[C@@](C(=O)OC)(c3cc4c(cc3OC)N(C)[C@H]3[C@@](O)(C(=O)NC(CO)CO)[C@H](O)[C@]5(CC)C=CCN6CC[C@]43[C@@H]65)C2)C1 [Serinol-(dAc)-VIN] | 800 | 8300 |
| CC[C@]1(O)C[C@@H]2CN(CCc3c([nH]c4ccccc34)[C@@](C(=O)OC)(c3cc4c(cc3OC)N(C)[C@H]3[C@@](O)(C(=O)NC(C)C(O)C5CCCCC5)[C@H](O)[C@]5(CC)C=CCN6CC[C@]43[C@@H]65)C2)C1 (single isomer, unassigned; isomer b) [(3-cyclohexyl-3-hydroxyl-2-propylaminol)-(dAc)-VIN isomer B] | 1200 | 800 |
| CC[C@]1(O)C[C@@H]2CN(CCc3c([nH]c4ccccc34)[C@@](C(=O)OC)(c3cc4c(cc3OC)N(C)[C@H]3[C@@](O)(C(=O)NC5CCCCC5O)[C@H](O)[C@]5(CC)C=CCN6CC[C@]43[C@@H]65)C2)C1 (single isomer, unassigned; isomer b) [(trans-2-hydroxyl)cyclohexylamino-(dAc)-VIN, Isomer B] | 800 | 800 |

Source: US20020103136A1, “Conjugates useful in the treatment of prostate cancer” (priority 1998, published 2002)
